Several values for one entry are separate records, joined by “and”; a condition that tells them apart may be missing. Equal values may be shown once. Read-outs that look alike come from different tables or passages of the source.
What was measured:
WT mice = assay: Muscle force in vivo, grip force test (4-grips test), WT mice; parameters: species or system mouse; conditions: for grip force (sheet Fig S6b): single mice; for grip force normalized by body weight: 8-times injection of 1 mg/kg at 10 min intervals, 1 mg/kg
G2435R FDB fibers = assay: Mn2+ quench assay in FDB fibers from G2435R mice; format: cell-based, mouse; conditions: 10 µM
Procedure: (§1) WT and mutant mice (R2509C, 8- to 20-week old; R163C, 12- to 16-week old, and G2435R, 12- to 16-week old) were euthanized and flexor digitorum brevis (FDB) muscles were dissected and incubated with 2 mg/mL collagenase (Worthington Biochemical Co., NJ, USA) in the HEPES-Krebs solution containing 2 mg/mL bovine serum albumin for 2–3 h at 37 °C. Following incubation, single cells were separated by gentle trituration in collagenase-free HEPES-Krebs solution. Isolated single FDB cells were seeded on a laminin-coated cover slip of the 35 mm glass-bottom dish or on 96 well plate coated with Cultrex basement membrane matrix (Trevigen, Minneapolis, USA).
Assays were carried out as follows[38]: 5 µM of fura2-AM dye (Thermo Fisher Scientific) dissolved in mammalian Ringer solution (133 mM NaCl, 5 mM KCl, 1 mM MgSO4, 25 mM HEPES, 5.5 mM glucose, 2 mM CaCl2, pH 7.4) was loaded into dissociated WT and homozygous G2435R FDB fibers in 96 well plates for 30 min at 37 °C, 5% CO2. […] Fura-2 was illuminated at its isosbestic wavelength (360 nm) with the X-Cite 120 metal halide light source (Exfo, Ontario, Canada) and fluorescence emission at 510 nm was recorded using a 10 ×0.3na objective. […] The fluorescence signals were plotted as fluorescence arbitrary units (f.a.u.) over time. […]

G2435R mice = assay: In vivo heat stress challenge in awake restrained G2435R mice (38 °C chamber); parameters: species or system mouse; conditions: pretreatment 30 mg/kg
RyR1 channel = tested on: RyR1 channel; parameters: method as in PMID 31299492; conditions: HEK293 cell-based assay; read-out: IC50 for inhibiting the RyR1 channel; cited from earlier work
R2509C mice = assay: Muscle force in vivo, grip force test (4-grips test), R2509C mice; parameters: species or system mouse; conditions: for grip force (sheet Fig S6c): single mice
Procedure: Muscle force was measured in vivo by grip-force test. […] The force was measured before and 10 and 60 min after i.p. injection of saline or Cpd1 (10 mg/kg). Mice (8- to 12-week old) were gently held by the tails and allowed them to grasp the horizontally positioned metal bar of the Grip Strength Meter (MK308M, Muromachi Kikai, Tokyo, Japan) with their forelimbs and hindlimbs (4-grips test). Each mouse performed four trials for force measurement at every time point. The highest force value applied to the metal bar was recorded and normalized by body weight.

[1] = Pharmacokinetics after i.p. administration in mice; format: in vivo, mouse; conditions: 8-times injection of 1 mg/kg at 10 min intervals
R163C mice = format: in vivo, mouse
[2] = tested on: FDB muscle cells from R2509C mice; assay: Mn2+ quench of fura-2 fluorescence in isolated FDB cells from R2509C mice; format: cell-based, mouse; conditions: 0.1 μM
Procedure: as §1
Isolated single FDB cells were incubated with 4 µM Cal520-AM (AAT Bioquest, CA, USA) or fura-2-AM (Thermo Fisher Scientific) dye in the HEPES-Krebs solution (140 mM NaCl, 5 mM KCl, 2 mM CaCl2, 1 mM MgCl2, 11 mM glucose, 5 mM HEPES, pH 7.4) for 30 min at 37 °C. The cells were then washed three times with the HEPES-Krebs solution to remove excess dye, and after 30 min of de-esterification, fluorescence images were obtained with a 20X (NA = 0.75) objective lens of an inverted microscope (Nikon TE2000-E Japan) equipped with the sCMOS camera (Zyla, Andor, Belfast, Northern Ireland) using Metamorph v7 (Molecular Devices). Cal520 was excited at 480 ± 15 nm, and fluorescence was measured at wavelengths of 525 ± 25 nm. […]

[3] = Pre (before administration), Cpd1 group

CCCCCCCCn1cc(C(=O)O)c(=O)c2cc3c(cc21)OCO3 [Cpd1, 6,7-(methylenedioxy)-1-octyl-4-quinolone-3-carboxylic acid]
grip force (sheet Fig S6b) (WT mice; 10 min after Cpd1): 10.7 and 8.11 and 9.35 and 11.39
grip force (sheet Fig S6b) (WT mice; 60 min after Cpd1): 11.25 and 11.53 and 12.05 and 13.94
grip force (sheet Fig S6b) (WT mice; [3]): 12.3 and 12.63 and 13.75 and 13.44
reduction of muscle strength (WT mice; WT mice, 10 min after 10 mg/kg): 15%
recovery of muscle strength deficit (WT mice; WT mice, 60 min after 10 mg/kg): almost completely recovered
grip force normalized by body weight (WT mice; female WT, 10 min): 6.55 g/g BW and 8.77 g/g BW and 8.32 g/g BW
grip force normalized by body weight (WT mice; female WT, 30 min): 6.59 g/g BW and 8.18 g/g BW and 9 g/g BW
grip force normalized by body weight (WT mice; female WT, 60 min): 8.64 g/g BW and 8.82 g/g BW and 9.45 g/g BW
grip force normalized by body weight (WT mice; female WT, 120 min): 10.05 g/g BW and 9.64 g/g BW and 12.23 g/g BW
grip force normalized by body weight (WT mice; female WT, Pre): 9.86 g/g BW and 10.18 g/g BW and 11.36 g/g BW
grip force normalized by body weight (WT mice; male WT, 10 min): 6.56 g/g BW and 4.67 g/g BW and 5.04 g/g BW
grip force normalized by body weight (WT mice; male WT, 30 min): 7.19 g/g BW and 7.63 g/g BW and 7.37 g/g BW
grip force normalized by body weight (WT mice; male WT, 60 min): 8.81 g/g BW and 9.89 g/g BW and 10.81 g/g BW
grip force normalized by body weight (WT mice; male WT, 120 min): 9.48 g/g BW and 8.74 g/g BW and 9.44 g/g BW
grip force normalized by body weight (WT mice; male WT, Pre): 9.33 g/g BW and 9.22 g/g BW and 8.63 g/g BW
Mn2+ quench rate (G2435R FDB fibers): the same as that in untreated WT fibers
effect on rise in rectal temperature (G2435R mice): greatly slowed the rise in rectal temperature
IC50 (RyR1 channel): 0.012 µM
grip force (sheet Fig S6c) (R2509C mice; 10 min after Cpd1): 9.25 and 10 and 6.39 and 8.47 and 6.45 and 7.53
grip force (sheet Fig S6c) (R2509C mice; 60 min after Cpd1): 10.04 and 12.86 and 9.79 and 9.69 and 9.84 and 10.9
grip force (sheet Fig S6c) (R2509C mice; [3]): 10.64 and 13.19 and 10.54 and 8.58 and 8.65 and 10.63
muscle weakness in grip strength test (R2509C mice; R2509C mice, after administration of Cpd1): muscle weakness was also observed in 10 min but recovered within 60 min
plasma concentration ([1]; female, 10 min): 70 ng/mL and 90 ng/mL
plasma concentration ([1]; male, 5 min): 610 ng/mL and 360 ng/mL
survival curve status code of one mouse after isoflurane anesthesia (code not defined) (R163C mice; 2.5 mg/kg, at 11 minutes): 1
survival curve status code of one mouse after isoflurane anesthesia (code not defined) (R163C mice; 2.5 mg/kg, at 12 minutes): 1
survival curve status code of one mouse after isoflurane anesthesia (code not defined) (R163C mice; 2.5 mg/kg, at 13 minutes): 1
survival curve status code of one mouse after isoflurane anesthesia (code not defined) (R163C mice; 2.5 mg/kg, at 14 minutes): 1
survival curve status code of one mouse after isoflurane anesthesia (code not defined) (R163C mice; 5 mg/kg, at 12 minutes): 1
survival curve status code of one mouse after isoflurane anesthesia (code not defined) (R163C mice; 5 mg/kg, at 15 minutes): 1
survival curve status code of one mouse after isoflurane anesthesia (code not defined) (R163C mice; 5 mg/kg, at 30 minutes): 0
rescue effect on [Ca2+]i during MH crisis (R163C mice; 10 mg/kg 15 min after induction of isoflurane anesthesia): rapidly decreased [Ca^2+]i to the levels measured in WT muscle
survival curve status code of one mouse after isoflurane anesthesia (code not defined) (R163C mice; 10 mg/kg, at 30 minutes): 0
effect on MH episode and death under isoflurane (R163C mice; pretreatment at doses of 5 and 10 mg/kg): effectively prevented the MH episode and death
effect on rate of Mn2+ quench [2]: no effect

Reference: publication PMC8277899, “A novel RyR1-selective inhibitor prevents and rescues sudden death in mouse models of malignant hyperthermia and heat stroke” (Nature Communications, 2021)
